Tests used:
Assay type in all cases: in vivo
[1] = system: sweet cherry (variety Hedelfinger) inflorescences, severed branches; experiment: Frost protection activity on sweet cherry inflorescences in frost chamber; conditions: dilute aqueous preparation (0.25 kg/ha), −2° C. for 4 hours
Experimental: (§1) For the following studies, tocopherol-comprising formulations were diluted with water to give a tocopherol concentration of 0.25% by weight.
(§2) Boroethanolamine was diluted with water to give a concentration of 0.25% by weight.
(§3) Freshly severed branches with 20 to 50 inflorescences (inflorescence stage BBCH 60-69) were used for studying the protection of inflorescences. The twigs were sprayed to runoff point with the aqueous dilution of the respective formulation, using a hand-held sprayer.
(§4) The tests of the formulations in respect of their frost protectant activity were carried out under controlled conditions in frost chambers with fruit-tree inflorescences (apple (variety Elstar), severed branches, sweet cherry (variety Hedelfinger), severed branches).
(§5) The fruit trees were treated 24 hours before the frost event by spraying the inflorescences with the dilute formulation.
(§6) (b) Treatment with formulation FV1 (0.25 g/l tocopherol),
(§7) (c) Treatment with formulation F1 (0.25 g/l tocopherol)+0.25 g/l boroethanolamine).
(§8) The branches were severed from the plant shortly before the test and then exposed to a temperature of −2° C. for a defined period (4 hours). On the following day, the relative number of the inflorescences with frost damage was determined visually. Damage was considered to be browning of the floral tissue (pedicel and ovaries).

[2] = system: apple trees cv. "Granny Smith" fruits; experiment: Protection against sun-scorch, field experiments on apples; conditions: dilute aqueous preparation (0.25 kg/ha); apples field experiment
Experimental: For the field experiments, the formulations were diluted with tap water in an amount of 100 l per kg of formulation. The plants were sprayed with the aqueous dilution with the aid of a commercially available plant protection sprayer at an application rate of 0.25 kg tocopherol/ha. The study was carried out in an apple plantation in South Africa (Somerset-West region) in February. To this end, apple trees cv. “Granny Smith” were sprayed with an aqueous dilution of formulation F2 or formulation FV2 8 days before the harvest in two adjacent plots, in parallel experiments. The controls used were in each case untreated trees of the same plot. To determine the damage, in each case approximately 30 fruits were harvested from each tree of the treated trees and of the untreated trees and then observed. The proportion of damaged fruits of the treated trees and of the untreated trees of the respective experiment was determined, and the percentage reduction in damage was determined on this basis. Damage was considered to be reddish and brownish discolorations of the fruit skin.

[3] = system: tangerine trees cv. "satsuma" fruits; experiment: Protection against sun-scorch, field experiments on tangerines (satsumas); conditions: dilute aqueous preparation (0.25 kg/ha); tangerines field experiment
Experimental: For the field experiments, the formulations were diluted with tap water in an amount of 100 l per kg of formulation. The plants were sprayed with the aqueous dilution with the aid of a commercially available plant protection sprayer at an application rate of 0.25 kg tocopherol/ha. The study was carried out in a fruit plantation in South Africa (Western Cape region, Simondium) in February. To this end, tangerine trees cv. “satsuma” were sprayed with an aqueous dilution of formulation F2 or formulation FV2 6 days before the harvest in two adjacent plots, in parallel experiments. The controls used were in each case untreated trees of the same plot. To determine the damage, in each case approximately 30 fruits were harvested from each tree of the treated trees and of the untreated trees and then observed. The proportion of damaged fruits of the treated trees and of the untreated trees of the respective experiment was determined, and the percentage reduction in damage was determined on this basis. Damage was considered to be yellowish discolorations of the green fruit skin.

[4] = system: apple (variety Elstar) inflorescences, severed branches; experiment: Frost protection activity on apple inflorescences in frost chamber; conditions: dilute aqueous preparation (0.25 kg/ha), −2° C. for 4 hours
Experimental: as §1, §2, §3, §4, §5, §6, §7, §8

NCCOB(O)O [boroethanolamine]
no significant change over the control: change in frost damage over the control [1] | change in sun-scorch damage over the control [2] | change in sun-scorch damage over the control [3] | change in frost damage over the control [4]

— patent publication US10028506B2, “Plant strengthener comprising a tocopherol and a boron compound” (COMPO EXPERT GMBH, priority 2013, dated 2018)
